Legend:
Assay in all cases: relative viability (nuclei count vs DMSO), 5 days (fraction); higher = more cells survive
Pemetrexed + Olaparib = compound: Nc1nc2[nH]cc(CCc3ccc(C(=O)N[C@@H](CCC(=O)O)C(=O)O)cc3)c2c(=O)[nH]1 [Pemetrexed] + O=C(c1cc(Cc2n[nH]c(=O)c3ccccc23)ccc1F)N1CCN(C(=O)C2CC2)CC1 [Olaparib] (partner 8 µM)
Outline: (§1)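 Medians of duplicate plates are given as relative viability. That measure is the nuclei count in treated wells divided by the count in vehicle wells. Counts were taken on 4× images of lung cancer cell lines in 1536-well plates, 5 days after pin-tool dosing the day after seeding with one drug alone or a fixed anchor-drug dose plus five library-drug doses (not always all listed) in √10 steps.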

Pemetrexed + Luminespib = compound: Nc1nc2[nH]cc(CCc3ccc(C(=O)N[C@@H](CCC(=O)O)C(=O)O)cc3)c2c(=O)[nH]1 [Pemetrexed] + CCNC(=O)c1noc(-c2cc(C(C)C)c(O)cc2O)c1-c1ccc(CN2CCOCC2)cc1 [Luminespib] (partner 0.01 µM)
Outline: as §1

Idelalisib + Vorinostat = compound: CC[C@H](Nc1ncnc2[nH]cnc12)c1nc2cccc(F)c2c(=O)n1-c1ccccc1 [Idelalisib] + O=C(CCCCCCC(=O)Nc1ccccc1)NO [Vorinostat] (partner 1 µM)
Outline: as §1

Idelalisib + OSI-027 = compound: CC[C@H](Nc1ncnc2[nH]cnc12)c1nc2cccc(F)c2c(=O)n1-c1ccccc1 [Idelalisib] + COc1cccc2cc(-c3nc([C@H]4CC[C@H](C(=O)O)CC4)n4ncnc(N)c34)[nH]c12 [OSI-027] (partner 0.5 µM)
Outline: as §1

Cell Line	relative viability (Pemetrexed + Olaparib; first compound 0.002 µM)	relative viability (Pemetrexed + Olaparib; first compound 0.006325 µM)	relative viability (Pemetrexed + Olaparib; first compound 0.02 µM)	relative viability (Pemetrexed + Olaparib; first compound 0.06325 µM)	relative viability (Pemetrexed + Olaparib; first compound 0.2 µM)	relative viability (Pemetrexed + Luminespib; first compound 0.002 µM)	relative viability (Pemetrexed + Luminespib; first compound 0.006325 µM)	relative viability (Pemetrexed + Luminespib; first compound 0.02 µM)	relative viability (Pemetrexed + Luminespib; first compound 0.06325 µM)	relative viability (Pemetrexed + Luminespib; first compound 0.2 µM)	relative viability (Idelalisib + Vorinostat; first compound 0.04 µM)	relative viability (Idelalisib + Vorinostat; first compound 0.1265 µM)	relative viability (Idelalisib + Vorinostat; first compound 0.4 µM)	relative viability (Idelalisib + Vorinostat; first compound 1.265 µM)	relative viability (Idelalisib + Vorinostat; first compound 4 µM)	relative viability (Idelalisib + OSI-027; first compound 0.04 µM)	relative viability (Idelalisib + OSI-027; first compound 0.1265 µM)	relative viability (Idelalisib + OSI-027; first compound 0.4 µM)	relative viability (Idelalisib + OSI-027; first compound 1.265 µM)	relative viability (Idelalisib + OSI-027; first compound 4 µM)
NCI-H661	0.741	0.743	0.71	0.759	0.679	0.958	0.882	0.934	0.884	0.85	0.81	0.779	0.828	0.876	0.814	0.705	0.838	0.607	0.661	0.706
CAL-12T	0.706	0.616	0.804	0.694	0.692	0.307	0.352	0.38	0.363	0.557	0.831	0.689	0.65	0.704	0.648	0.643	0.753	0.537	0.569	0.537
HARA	0.758	0.859	0.834	0.606	0.182	0.554	0.751	1.19	0.855	0.165	0.453	0.504	0.473	0.574	0.39	0.618	0.466	0.296	0.374	0.441
NCI-H596	0.747	0.73	0.761	0.668	0.514	0.97	1.01	1.14	0.945	0.679	0.622	0.595	0.511	0.567	0.415	0.859	0.746	0.666	0.65	0.551
LU99A	0.246	0.245	0.302	0.28	0.244	0.264	0.233	0.318	0.261	0.19	0.536	0.468	0.387	0.535	0.506	0.302	0.322	0.242	0.298	0.305
LC-2-ad	0.712	0.711	0.683	0.612	0.312	1.09	0.989	0.709	0.313	0.303	0.798	0.702	0.683	0.791	0.703	0.944	0.781	0.651	0.82	0.715
NCI-H1650	0.676	0.93	0.887	0.758	0.345	0.192	0.18	0.199	0.178	0.183	0.513	0.604	0.58	0.587	0.614	0.641	0.602	0.478	0.578	0.536
NCI-H1915	0.243	0.277	0.274	0.238	0.274	0.818	0.857	0.84	0.836	0.781	0.567	0.534	0.498	0.503	0.448	0.699	0.633	0.627	0.739	0.53

From the supplement of paper PMC10307832
